Paper PMC9268448, “Synthesis of 4,5-Dihydro-1H-[1,2]dithiolo[3,4-c]quinoline-1-thione Derivatives and Their Application as Protein Kinase Inhibitors” (Molecules, 2022)

How the values were obtained:
NPM1-ALK = molecular target: T1, NPM1-ALK (Homo sapiens, UniProt Q9UM73); assay: Kinase inhibition ELISA, NPM1-ALK; assay type: biochemical; settings: 10 μM test compound, 150 μM ATP
T1 construct: NPM1 (nucleophosmin, P06748) fusion partner
Procedure: (§1) Study of inhibitory activity. […] The enzymatic reaction was stopped with a buffer containing 20 mM HEPES (Sigma, H4034), pH 7.5, and 150 mM EDTA (Sigma, E5513). […] Incubation was carried out for 1 h at room temperature. […] After completion of each incubation step (60 min at room temperature (~20 °C) and continuous stirring), the plates were washed three times from unbound antibody molecules with a PBS solution with Tween-20 and 100 μL of substrate (3.3′,5.5′-tetramethylbenzidine (TMB) dihydrochloride, Sigma, T8768) prepared according to the manufacturer’s instructions. Before measuring the optical density, the reaction was stopped using 0.5 M Н2SO4. The optical density of the solution was determined at λ = 450 nm using a tablet spectrophotometer (TECAN Safire). The data obtained were processed and imported into the HTSCalc program.
(§2) The data were analyzed using GraphPad Prism software (v. 3.1).

ALK = ALK (Homo sapiens, UniProt Q9UM73); assay: Kinase inhibition ELISA, ALK; assay type: biochemical; settings: 10 μM test compound, 150 μM ATP
Procedure: (§3) Study of inhibitory activity. The kinase activity was determined by enzyme-linked immunosorbent assay (ELISA) in polypropylene plates (Costar, 3363) in reaction buffer (20 mM HEPES, pH 7.5, 15 mM MgCl2, 2 mM DTT, 0.2 mM Na3VO4, 0.005% Triton X-100) for 60 min at 30 °C with vigorous stirring. The final concentration of the reaction components: 0.05 μg mL^–1 of the corresponding kinase, 5 nM Histon H3 biotinylated substrate (1–21) (Anaspec, 61702), 150 μM ATP (Sigma, A6419), 10 μM test compound, 5% DMSO. The enzymatic reaction was stopped with a buffer containing 20 mM HEPES (Sigma, H4034), pH 7.5, and 150 mM EDTA (Sigma, E5513). Further, to detect the phosphorylated substrate, the reaction mixture was transferred to pre-prepared plates (Nunc, 468667) coated with neutravidin (1 ng per well; Pierce, 31000) and treated with bovine serum albumin (BSA) to block non-specific binding sites. Incubation was carried out for 1 h at room temperature. After washing the plates three times with phosphate buffer saline (PBS, pH 7.4) with Tween-20, they were incubated sequentially with anti-phospho-Histon H3 antibodies (0.3 ng μL^–1; Millipore, 04-746) and with specific antibodies conjugated with an enzyme-label (peroxidase) Anti-rabbit IgG, HRP-linked Antibody (titer 1/5000; Cell Signaling, 7074). After completion of each incubation step (60 min at room temperature (~20 °C) and continuous stirring), the plates were washed three times from unbound antibody molecules with a PBS solution with Tween-20 and 100 μL of substrate (3.3′,5.5′-tetramethylbenzidine (TMB) dihydrochloride, Sigma, T8768) prepared according to the manufacturer’s instructions. Before measuring the optical density, the reaction was stopped using 0.5 M Н2SO4. The optical density of the solution was determined at λ = 450 nm using a tablet spectrophotometer (TECAN Safire). The data obtained were processed and imported into the HTSCalc program.

EGFR[L858R][T790] = EGFR[L858R][T790] (Homo sapiens, UniProt P00533, L858R/T790M); assay: Kinase inhibition ELISA, EGFR[L858R][T790]; assay type: biochemical; settings: 10 μM test compound, 150 μM ATP
Procedure: as §3

cRAF[Y340D][Y341D] = cRAF[Y340D][Y341D] (Homo sapiens, UniProt P04049, Y340D/Y341D); assay: Kinase inhibition ELISA, cRAF[Y340D][Y341D]; assay type: biochemical; settings: 10 μM test compound, 150 μM ATP
Procedure: as §1, §2

JAK2 = JAK2 (Homo sapiens, UniProt O60674); assay: Kinase inhibition ELISA, JAK2; assay type: biochemical; settings: 10 μM test compound, 150 μM ATP
Procedure: as §3

JAK3 = molecular target: T2, JAK3 (Homo sapiens, UniProt P52333); assay: Kinase inhibition ELISA, JAK3; assay type: biochemical; settings: 10 μM test compound, 150 μM ATP
T2 sequence (P52333 1-1124): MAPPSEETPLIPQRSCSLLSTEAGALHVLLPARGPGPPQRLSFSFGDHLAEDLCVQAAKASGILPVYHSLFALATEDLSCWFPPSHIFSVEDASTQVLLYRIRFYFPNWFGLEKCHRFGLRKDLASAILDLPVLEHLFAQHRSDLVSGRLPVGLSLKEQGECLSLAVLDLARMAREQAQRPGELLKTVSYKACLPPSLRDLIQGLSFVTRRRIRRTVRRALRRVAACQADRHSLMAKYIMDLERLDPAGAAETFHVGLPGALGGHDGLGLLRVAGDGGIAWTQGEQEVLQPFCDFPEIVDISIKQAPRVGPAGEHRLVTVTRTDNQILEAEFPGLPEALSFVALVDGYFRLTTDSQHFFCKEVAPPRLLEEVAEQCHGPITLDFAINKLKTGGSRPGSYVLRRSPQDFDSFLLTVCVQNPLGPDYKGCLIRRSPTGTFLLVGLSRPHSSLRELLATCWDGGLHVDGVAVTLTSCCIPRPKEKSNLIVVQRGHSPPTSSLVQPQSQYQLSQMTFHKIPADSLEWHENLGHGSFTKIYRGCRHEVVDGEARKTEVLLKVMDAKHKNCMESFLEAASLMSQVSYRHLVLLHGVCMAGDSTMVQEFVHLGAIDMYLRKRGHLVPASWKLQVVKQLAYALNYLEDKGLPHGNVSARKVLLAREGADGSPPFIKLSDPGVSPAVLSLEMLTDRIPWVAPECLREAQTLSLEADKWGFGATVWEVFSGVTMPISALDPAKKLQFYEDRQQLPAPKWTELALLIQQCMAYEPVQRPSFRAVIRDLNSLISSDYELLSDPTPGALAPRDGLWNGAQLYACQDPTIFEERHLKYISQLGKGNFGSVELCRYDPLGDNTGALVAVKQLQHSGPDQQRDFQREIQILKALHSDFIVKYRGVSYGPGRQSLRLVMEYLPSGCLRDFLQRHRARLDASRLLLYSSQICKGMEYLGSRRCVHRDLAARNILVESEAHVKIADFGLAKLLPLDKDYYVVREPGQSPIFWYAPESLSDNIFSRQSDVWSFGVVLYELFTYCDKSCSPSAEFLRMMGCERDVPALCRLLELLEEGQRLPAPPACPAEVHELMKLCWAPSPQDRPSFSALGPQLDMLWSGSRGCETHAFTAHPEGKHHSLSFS
Procedure: as §3
For compounds 2a–c,q, the IC50 value (μmol L^–1) was calculated from ten concentration points (in triplicate dilution) obtained twice. The data were analyzed using GraphPad Prism software (v. 3.1).

[1] = Solubility in DMSO (noted during NMR); assay type: physicochemical; settings: in words; NMR sample in DMSO
Procedure: The signal for the carbon atom of the imino group at 166.6 ppm was detected in the spectrum of the arylimino derivative 2q. In the mass spectra of compounds 2h, 2i–n, and 2q, peaks of protonated molecular ions, consistent with the structure of these compounds, were observed.

Sequence of cRAF[Y340D][Y341D] (P04049 whole entry Y340D/Y341D): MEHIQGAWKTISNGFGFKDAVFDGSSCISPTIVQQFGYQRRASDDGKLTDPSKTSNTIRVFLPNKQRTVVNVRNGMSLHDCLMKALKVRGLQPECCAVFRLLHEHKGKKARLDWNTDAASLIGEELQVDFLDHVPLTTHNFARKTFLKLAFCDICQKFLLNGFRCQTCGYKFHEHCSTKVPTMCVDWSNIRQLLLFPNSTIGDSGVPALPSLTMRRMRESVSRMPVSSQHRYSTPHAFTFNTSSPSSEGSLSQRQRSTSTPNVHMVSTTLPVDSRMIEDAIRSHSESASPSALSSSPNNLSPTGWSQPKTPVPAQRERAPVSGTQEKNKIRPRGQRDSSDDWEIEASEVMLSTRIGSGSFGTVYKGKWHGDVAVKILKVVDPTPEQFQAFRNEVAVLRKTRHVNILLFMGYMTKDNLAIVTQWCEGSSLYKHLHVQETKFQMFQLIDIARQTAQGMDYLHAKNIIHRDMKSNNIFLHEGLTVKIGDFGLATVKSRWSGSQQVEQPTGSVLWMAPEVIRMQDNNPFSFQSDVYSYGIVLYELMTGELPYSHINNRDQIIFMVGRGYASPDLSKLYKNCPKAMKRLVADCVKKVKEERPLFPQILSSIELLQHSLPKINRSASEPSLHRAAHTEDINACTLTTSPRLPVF
T1 sequence (Q9UM73 whole entry, looked up, the tested form may be a part): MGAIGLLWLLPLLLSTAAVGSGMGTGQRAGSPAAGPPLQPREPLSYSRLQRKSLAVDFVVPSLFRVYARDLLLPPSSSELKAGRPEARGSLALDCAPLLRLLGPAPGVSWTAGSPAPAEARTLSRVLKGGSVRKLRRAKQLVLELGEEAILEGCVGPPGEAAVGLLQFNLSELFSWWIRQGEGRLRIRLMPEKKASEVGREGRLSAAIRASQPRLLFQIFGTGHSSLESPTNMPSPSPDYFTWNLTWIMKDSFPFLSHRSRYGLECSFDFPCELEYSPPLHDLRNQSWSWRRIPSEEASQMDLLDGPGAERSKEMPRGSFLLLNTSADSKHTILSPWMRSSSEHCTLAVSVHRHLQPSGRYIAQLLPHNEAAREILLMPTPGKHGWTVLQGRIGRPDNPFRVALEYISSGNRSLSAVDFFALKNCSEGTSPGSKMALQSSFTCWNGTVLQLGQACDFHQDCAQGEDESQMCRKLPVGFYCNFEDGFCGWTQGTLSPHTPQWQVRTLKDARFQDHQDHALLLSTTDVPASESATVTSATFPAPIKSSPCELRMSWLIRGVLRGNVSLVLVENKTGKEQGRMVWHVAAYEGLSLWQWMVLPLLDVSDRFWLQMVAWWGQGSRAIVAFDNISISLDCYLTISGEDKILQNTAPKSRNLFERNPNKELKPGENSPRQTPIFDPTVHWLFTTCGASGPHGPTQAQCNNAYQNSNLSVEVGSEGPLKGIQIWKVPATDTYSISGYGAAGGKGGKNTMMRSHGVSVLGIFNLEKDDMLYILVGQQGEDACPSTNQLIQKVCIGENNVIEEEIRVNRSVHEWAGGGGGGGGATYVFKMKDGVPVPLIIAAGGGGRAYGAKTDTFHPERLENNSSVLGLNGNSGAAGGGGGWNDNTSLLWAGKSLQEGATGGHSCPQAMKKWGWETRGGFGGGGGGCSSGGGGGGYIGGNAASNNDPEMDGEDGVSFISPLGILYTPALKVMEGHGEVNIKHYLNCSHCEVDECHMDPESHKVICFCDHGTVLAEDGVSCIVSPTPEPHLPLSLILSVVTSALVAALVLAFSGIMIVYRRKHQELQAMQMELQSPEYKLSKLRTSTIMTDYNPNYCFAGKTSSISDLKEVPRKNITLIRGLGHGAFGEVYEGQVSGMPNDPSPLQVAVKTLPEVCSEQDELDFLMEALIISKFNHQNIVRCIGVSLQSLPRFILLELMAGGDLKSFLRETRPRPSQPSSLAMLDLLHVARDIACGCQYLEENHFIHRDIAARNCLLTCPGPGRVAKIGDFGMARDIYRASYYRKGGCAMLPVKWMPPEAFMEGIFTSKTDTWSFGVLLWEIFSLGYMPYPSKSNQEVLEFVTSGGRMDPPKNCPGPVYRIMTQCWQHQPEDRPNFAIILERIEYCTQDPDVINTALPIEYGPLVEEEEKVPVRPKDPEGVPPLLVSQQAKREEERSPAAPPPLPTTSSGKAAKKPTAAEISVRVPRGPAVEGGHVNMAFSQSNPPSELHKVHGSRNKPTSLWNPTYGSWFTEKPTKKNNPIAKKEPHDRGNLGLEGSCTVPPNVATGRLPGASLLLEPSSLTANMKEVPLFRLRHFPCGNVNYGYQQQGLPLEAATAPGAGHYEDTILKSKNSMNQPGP
Sequence of JAK2 (O60674 whole entry): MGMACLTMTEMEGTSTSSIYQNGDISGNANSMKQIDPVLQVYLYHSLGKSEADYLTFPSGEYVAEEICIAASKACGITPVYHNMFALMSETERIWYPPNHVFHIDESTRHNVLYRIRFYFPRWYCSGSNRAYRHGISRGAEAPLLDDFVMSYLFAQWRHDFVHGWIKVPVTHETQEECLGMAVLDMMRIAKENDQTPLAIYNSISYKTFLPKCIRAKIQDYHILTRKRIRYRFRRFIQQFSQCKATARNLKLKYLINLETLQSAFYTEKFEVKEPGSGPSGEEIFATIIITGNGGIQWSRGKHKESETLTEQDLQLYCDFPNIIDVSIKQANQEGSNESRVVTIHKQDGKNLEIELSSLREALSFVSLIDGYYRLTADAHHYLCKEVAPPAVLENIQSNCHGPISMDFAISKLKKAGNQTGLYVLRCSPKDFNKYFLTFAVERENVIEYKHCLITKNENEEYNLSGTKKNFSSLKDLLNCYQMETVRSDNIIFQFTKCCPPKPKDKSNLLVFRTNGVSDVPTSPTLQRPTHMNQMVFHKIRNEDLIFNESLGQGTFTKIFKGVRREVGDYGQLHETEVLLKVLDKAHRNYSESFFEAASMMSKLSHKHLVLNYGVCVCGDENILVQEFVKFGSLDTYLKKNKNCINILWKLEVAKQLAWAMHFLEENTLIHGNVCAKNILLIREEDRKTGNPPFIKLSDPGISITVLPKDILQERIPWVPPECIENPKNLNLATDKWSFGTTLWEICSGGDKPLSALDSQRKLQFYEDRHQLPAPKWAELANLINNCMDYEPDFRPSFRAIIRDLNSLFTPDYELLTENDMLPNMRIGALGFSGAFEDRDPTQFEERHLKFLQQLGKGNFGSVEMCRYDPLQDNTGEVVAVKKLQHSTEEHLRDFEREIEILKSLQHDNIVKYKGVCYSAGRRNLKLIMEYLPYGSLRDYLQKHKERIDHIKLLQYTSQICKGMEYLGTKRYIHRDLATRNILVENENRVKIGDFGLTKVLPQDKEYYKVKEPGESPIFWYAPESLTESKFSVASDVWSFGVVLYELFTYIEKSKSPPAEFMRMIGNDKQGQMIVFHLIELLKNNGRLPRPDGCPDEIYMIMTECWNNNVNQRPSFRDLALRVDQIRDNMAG
Sequence of ALK (Q9UM73 19-1620): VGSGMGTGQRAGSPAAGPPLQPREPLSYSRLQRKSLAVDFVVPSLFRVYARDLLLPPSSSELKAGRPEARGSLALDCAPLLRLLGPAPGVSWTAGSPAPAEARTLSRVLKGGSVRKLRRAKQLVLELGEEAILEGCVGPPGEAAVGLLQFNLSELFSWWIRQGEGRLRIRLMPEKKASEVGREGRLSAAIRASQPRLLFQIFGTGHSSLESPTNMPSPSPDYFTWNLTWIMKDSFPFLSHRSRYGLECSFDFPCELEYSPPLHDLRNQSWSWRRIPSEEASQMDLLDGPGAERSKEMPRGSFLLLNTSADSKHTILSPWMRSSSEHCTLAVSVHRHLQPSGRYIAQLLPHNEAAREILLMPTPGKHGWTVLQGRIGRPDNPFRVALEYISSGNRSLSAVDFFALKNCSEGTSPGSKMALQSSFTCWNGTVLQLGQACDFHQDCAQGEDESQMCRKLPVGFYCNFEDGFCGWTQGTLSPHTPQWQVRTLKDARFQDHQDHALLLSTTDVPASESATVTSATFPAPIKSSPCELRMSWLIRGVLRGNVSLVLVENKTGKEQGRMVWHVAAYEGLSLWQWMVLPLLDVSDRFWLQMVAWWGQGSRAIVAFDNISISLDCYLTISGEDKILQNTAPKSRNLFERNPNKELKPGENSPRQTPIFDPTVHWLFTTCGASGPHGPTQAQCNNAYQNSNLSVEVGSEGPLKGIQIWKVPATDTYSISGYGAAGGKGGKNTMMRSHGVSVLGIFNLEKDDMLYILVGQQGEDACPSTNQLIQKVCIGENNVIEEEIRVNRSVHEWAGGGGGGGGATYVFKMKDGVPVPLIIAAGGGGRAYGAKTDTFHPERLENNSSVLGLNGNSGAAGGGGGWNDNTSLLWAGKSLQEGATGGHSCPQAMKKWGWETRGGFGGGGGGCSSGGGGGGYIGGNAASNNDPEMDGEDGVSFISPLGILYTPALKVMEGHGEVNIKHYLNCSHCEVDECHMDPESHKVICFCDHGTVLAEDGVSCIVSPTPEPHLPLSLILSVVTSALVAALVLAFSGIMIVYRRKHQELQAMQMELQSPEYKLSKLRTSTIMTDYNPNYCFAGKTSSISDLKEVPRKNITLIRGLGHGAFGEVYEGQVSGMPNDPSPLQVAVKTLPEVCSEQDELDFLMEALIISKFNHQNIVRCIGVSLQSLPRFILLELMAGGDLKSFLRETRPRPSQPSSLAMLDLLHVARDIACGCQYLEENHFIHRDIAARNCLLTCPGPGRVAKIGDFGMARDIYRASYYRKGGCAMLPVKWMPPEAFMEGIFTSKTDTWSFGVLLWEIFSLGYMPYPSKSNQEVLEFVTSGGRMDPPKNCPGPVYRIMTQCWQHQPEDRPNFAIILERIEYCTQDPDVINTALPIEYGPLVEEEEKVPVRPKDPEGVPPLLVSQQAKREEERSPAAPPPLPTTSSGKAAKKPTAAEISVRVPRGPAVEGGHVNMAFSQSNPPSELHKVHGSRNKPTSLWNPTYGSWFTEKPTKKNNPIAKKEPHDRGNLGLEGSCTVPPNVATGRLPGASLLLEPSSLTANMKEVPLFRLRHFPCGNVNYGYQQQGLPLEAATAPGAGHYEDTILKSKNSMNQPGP

inhibition at 10 µM (NPM1-ALK): 24% | inhibition at 10 µM (ALK): 19% | inhibition at 10 µM (EGFR[L858R][T790]): 5% | inhibition at 10 µM (cRAF[Y340D][Y341D]): 13% | inhibition at 10 µM (JAK2): 47% | inhibition at 10 µM (JAK3): 52% | solubility in DMSO [1]: low solubility in DMSO | melting point: > 260 °C
SMILES: CC1(C)c2ssc(=S)c2-c2cc3c(c4c2N1C(=O)C4=O)OCCO3 [2n, 8,8-Dimethyl-11-thioxo-2,3,8,11-tetrahydro[1,4]dioxino[2,3-g][1,2]dithiolo[3,4-c]pyrrolo[3,2,1-ij]quinoline-5,6-dione]
